Entries after “also recorded” stand apart in the source; their conditions may differ.
What was measured:
HaCaT cells [1] = test: Alkaline comet assay, MGO-induced DNA damage; format: cell-based, human; settings: for protective effect on MGO induced DNA damage (comet assay, tail DNA): 50 μM pre-treatment 2 hours, MGO 400 μM 24 h, FIG. 8
Protocol: HaCaT cells were seeded at about 100 000 cells/ml to yield 80-90% confluence in standard 6-well plates. […] After incubation, the cells were washed with PBS twice and then treated with MGO (400 μM) for 24 h. After that, comet assay was performed as per the protocol provided by [sequence] (4250-050-K). Briefly, cells were collected and combined with molten LMAgarose at a ratio of 1:10, pipetted onto Comet slides, incubate in Lysis Solution at 4° C. overnight, immerse slides in Alkaline Unwinding Solution for 20 minutes, apply electrophoresis in Alkaline Electrophoresis Solution at 21 volts for 30 minutes, fixed in 75% ethanol for 15 minutes, dry in 37° C. for 15 minutes and then stain in diluted SYBR GOLD, images were taken with EVOS Cell Imaging System (Invitrogen, Waltham, Mass., USA) and analyzed via CASP.

HaCaT cells [2] = test: MGO induced cell damage model (CTG 2.0, crystal violet staining); format: cell-based, human; settings: 24 hours
Protocol: (§1) HaCaT cells which were derived from human adult keratinocytes were bought from American Type Culture Collection (Manassas, Va., USA). The cells were maintained in DMEM supplemented with 5% FBS at 37° C. under an atmosphere of 5% CO2 and 95% air. The culture medium was replaced every other day.
Briefly, HaCaT cells were seeded at about 50000 cells/ml to yield 50-60% confluence in standard white-walled clear bottom 96-well plates and 6-well plates. After 12 h incubation cells were treated with different concentrations of MGO ([…], 200 μM, 300 μM, 400 μM, 500 μM and 600 μM) for 24 hours respectively and use non-treated group as control. Cellular viability was detected using cells in 96-well plates via CTG 2.0. […] At higher concentrations than 400 μM the damaged caused by MGO to the cells was extreme. Morphological analysis was conducted to evaluate cell damage with crystal violet staining method in 6-well plates as per the below mentioned procedure.
Briefly crystal violet staining were carried with protocol provided by sigma. The staining solution was prepared by dissolve 5 g of crystal violet powder into 100 ml 20% ethanol to make. HaCaT cells in 6-well plates were fixed with 75% ethanol 15 minutes in room temperature. Then cells were incubated with staining solution for 10 minutes. After that cells were washed with PBS for 5 times. Subsequently, pictures were taken under EVOS Cell Imaging System (Invitrogen, Waltham, Mass., USA).
Excessive accumulation of MGO is harmful for skin cells, so the effects of MGO on cell viability at various concentrations on HaCaT cells were evaluated first.

HaCaT cells [3] = test: Cell viability of HaCaT cells exposed to test substances (CTG 2.0); format: cell-based, human; settings: 0-200 μM, 24 hours, FIG. 3
Protocol: as §1
Cellular viability was assessed using the Cell Titer Glo2.0 (CTG 2.0) one-step assay. Briefly, HaCaT cells were seeded at about 50 000 cells/ml to yield 50-60% confluence in a standard white-walled clear bottom 96-well plate. HaCaT cells were exposed to different concentration of PE (0, 6.25, 12.5, 25, 50, 100, 200 μg/mL), PA (0, 3.13, 6.25, 12.5, 25, 50, 100, 200 μM), EA (0, 3.13, 6.25, 12.5, 25, 50, 100, 200 μM), and UA (0, 3.13, 6.25, 12.5, 25, 50, 100, 200 μM) for 24 hours. Following the pre-determined incubation period of 24 hours, CTG 2.0 was added in a 1:1 ratio with existing media and mixed for 5 minutes on an orbital shaker prior to luminescence measurement (Spectramax M2, Molecular Devices, Sunnyvale, Calif., USA).

HaCaT cells [4] = test: Hoechst 33342 staining, MGO-induced DNA damage; format: cell-based, human; settings: 50 μM pre-treatment 2 hours, 400 μM MGO 24 hours; FIG. 7
Protocol: HaCaT cells were seeded at about 50,000 cells/ml to yield 50-60% confluency in a standard 6-well plate. Cells were pre-treated with PE 50 μg/mL, PA 50 μM, EA 50 μM, and UA 50 μM, respectively for 2 hours. Then cells were washed with PBS once and treated with 400 μM of MGO for 24 hours. After that cells were washed with PBS twice and then incubated with 250 μl Hoechst 33342 (1:300 dilute with PBS) at room temperature for 15 minutes. Then cells were fixed with 75% ethanol for 15 minutes, followed by imaging with EVOS Cell Imaging System (Invitrogen, Waltham, Mass., USA).

HaCaT cells [5] = test: Reactive oxygen species (ROS) assay, DCFDA; format: cell-based, human; settings: MGO 400 μM 24 h, FIG. 6
Protocol: HaCaT cells were seeded at about 50 000 cells/ml to yield 50-60% confluence in standard white-walled clear bottom 96-well plates and 6-well plates in DMEM. After 12 h incubation cells were pre-treated with concentrations of PE (0, 6.25, 12.5, 25, 50, 100, 200 μg/mL), PA (0, 3.13, 6.25, 12.5, 25, 50, 100, 200 μM), EA (0, 3.13, 6.25, 12.5, 25, 50, 100, 200 μM), and UA (0, 3.13, 6.25, 12.5, 25, 50, 100, 200 μM) for 2 hours. Then, the medium was replaced with DMEM containing 20 μM DCFDA and MGO (400 μM) for 24 h. After incubation, all the wells were washed with PBS twice. Subsequently, the fluorescence signals from 96-well plates were read at excitation and emission wavelengths of 485 and 525 nm, respectively, using a Spectra Max M2 spectrometer (Molecular Devices, Sunnyvale, Calif., USA). Cells images were taken with EVOS Cell Imaging System (Invitrogen, Waltham, Mass., USA) using 6-well plates cells.

HaCaT cells [6] = test: Transwell assay (cell migration ability); format: cell-based, human; settings: 50 μM pre-treatment 2 hours, 400 μM MGO 24 h; FIG. 9B
Protocol: Cell migration ability was measured by transwell assay. HaCaT cells in 6-well plates were cultured up to about 80-90% confluence. Then cells were pretreated with PE 50 μg/mL, PA 50 μM, EA 50 μM, and UA 50 μM, respectively for 2 hours, then washed with PBS twice. After that, cells were exposed to 400 μM of MGO for 24 h. Then, cells were digested with trypsin and centrifuged at 300 g for 5 min. Then, 2.5×10^5 cell were suspended in 1 ml serum free DMED. 100 μl of serum free DMEM were added into the upper chamber and incubated for 5 minutes, then 600 μl DMEM containing 5% FBS were added to the 24 well plate (lower chamber). After that 300 μl of cell suspension were added into the upper chamber. After 12 h incubation, cells in upper chamber were washed with PBS and fixed with 75% ethanol for 15 minutes. Then cells in upper chamber were stained with Crystal violet for 10 minutes and washed for 5 times. Cells inside the upper chamber were removed by swab. Then, pictures were taken with EVOS Cell Imaging System (Invitrogen, Waltham, Mass., USA). After that stained cells were incubated in 75% ethanol for 15 minutes for decoloration. Then, optical density of the decoloration solution in 570 nm was calculated via Spectra Max M2 spectrometer (Molecular Devices, Sunnyvale, Calif., USA).

HaCaT cells [7] = test: Wound healing model (in vitro scratch healing assay); format: cell-based, human; settings: 50 μM pre-treatment 2 hours, 400 μM MGO 48 h; FIG. 9D, 9E
Protocol: as §1
Wound healing model was constructed with an in vitro scratch healing assay performed as described previously with certain modifications.^4 HaCaT cells in 6-well plates were cultured up to about 80-90% confluence. Then cells were pretreated with PE 50 μg/mL, PA 50 μM, EA 50 μM, and UA 50 μM, respectively for 2 hours. After the treatments, a narrow wound-like gap in the cell monolayer was created with a […] pipette tip in each well. The shedding cells were washed off with PBS and then the images were captured with EVOS Cell Imaging System (Invitrogen, Waltham, Mass., USA). The cells were further exposed to 400 μM MGO for 48 h and the cell images were captured with EVOS Cell Imaging System (Invitrogen, Waltham, Mass., USA). Gap area was analyzed in image J, a software quantifying visualization image data, and the wound healing rate was calculated as follows=[…]/Gap Area(0 h)×100%.

HaCaT cells [8] = test: Protective effect on MGO induced cell damage model (CTG 2.0); format: cell-based, human; settings: 12.5, 25, and 50 μM pre-treatment 2 hours, then 400 μM MGO 24 hours; FIG. 5
Protocol: as §1
Briefly, HaCaT cells were seeded at about 50000 cells/ml to yield 50-60% confluence in standard white-walled clear bottom 96-well plates and 6-well plates. After 12 h incubation cells were pre-treated with different concentrations of PE (0, 6.25, 12.5, 25, 50, 100, 200 μg/mL), PA (0, 3.13, 6.25, 12.5, 25, 50, 100, 200 μM), EA (0, 3.13, 6.25, 12.5, 25, 50, 100, 200 μM), and UA (0, 3.13, 6.25, 12.5, 25, 50, 100, 200 μM) for 2 hours. Then cells were washed with PBS twice and treated with 400 μM MGO for 24 hours. Cellular viability was detected using cells in 96-well plate via CTG 2.0, and cell images were taken with EVOS Cell Imaging System (Invitrogen, Waltham, Mass., USA) using cells in 6-well plates after crystal violet stain.

9mer ss-DNA = test: Glycation assay and LC-MS analysis of MGO-induced DNA damage; format: biochemical; settings: FIG. 1
Text: DNA Oligonucleotide Synthesis. Nine-mer single stranded DNA oligonucleotide (9mer ss-DNA) with the sequence 5′-TTTTGTTTT-3′ containing a single guanine base was synthesized by using solid-phase phosphoramidite chemistry as previously described^2 on MerMade-4 DNA synthesizer. The oligonucleotide was purified by using Thermo Scientific DNAPac PA100 Oligonucleotide anion-exchange column (4×250 mm, 13 μm) with two mobile phases. Solvent A was water, and solvent B was 1.5M ammonium acetate in water. The oligonucleotide was characterized by HPLC electrospray ionization (ESI) triple quadrupole-TOF mass spectrometry (MS). The concentration of oligonucleotide was determined by measuring UV absorbance at 260 nm on a NanoDrop spectrophotometer.
Glycation Assay and LC-MS Analysis. […] LC-MS analysis was carried out on AB Sciex triple quadrupole-TOF 4600 mass spectrometer. […]
Statistical Analysis. […] The data between two groups was assessed under the two-tailed Student's t test. p-value<0.05 was considered as statistically significant. […]

Structure (SMILES) | percentage of fracture DNA compared to control group (comet assay) (HaCaT cells [1]; MGO 400 μM alone, 24 h) | effect of MGO on HaCaT cell viability (HaCaT cells [2]; MGO 100-300 μM) | effect of MGO on HaCaT cell viability (HaCaT cells [2]; MGO at 400 μM or higher) | effect of MGO on HaCaT cell viability (HaCaT cells [2]; MGO higher than 400 μM) | cytotoxicity to HaCaT cells (HaCaT cells [3]) | protective effect on MGO induced DNA damage (comet assay, tail DNA) (HaCaT cells [1]) | DNA damage level caused by MGO (Hoechst staining) (HaCaT cells [4]) | production of MGO induced ROS in HaCaT cells, compared to non-treated group (HaCaT cells [5]; 25 and 50 μM pre-treatment 2 hours) | cell migration ability (transwell assay) (HaCaT cells [6]) | wound healing process in the presence of MGO (HaCaT cells [7]) | cell viability of HaCaT cells exposed to MGO, compared to non-treated group (HaCaT cells [8]) | production of MGO induced ROS in HaCaT cells, compared to non-treated group (HaCaT cells [5]; 12.5, 25, and 50 μM pre-treatment 2 hours) | protective effect against methylglyoxal (MGO)-induced DNA damage (9mer ss-DNA; 200 μM 9mer ss-DNA, 200 μM MGO, pH 7.4, 37° C., 7 days) | activity in reducing DNA damage compared with aminoguanidine (AG) positive control (9mer ss-DNA; equivalent concentration (50 μM)) | production of MGO induced ROS in HaCaT cells, compared to non-treated group (HaCaT cells [5]; 50 μM pre-treatment 2 hours)
CC(=O)C=O [MGO, methylglyoxal] | could increase the percentage of fracture DNA | did not affect the cell viability; also recorded: non-toxic | significant cytotoxicity | extreme; also recorded: extremely cytotoxic | – | – | – | – | – | – | – | – | – | – | –
O=c1oc2cc(O)ccc2c2ccc(O)cc12 [UA, urolithin A] | – | – | – | – | not cytotoxic | no protective effects | can reduce the DNA damage level | significantly reduced the production of MGO induced ROS | promotive effects | – | – | – | – | – | –
O=C1O[C@H]2[C@@H]3OC(=O)c4cc(O)c(O)c(O)c4-c4c(O)c(O)c5oc(=O)c6c(c(O)c(O)c7oc(=O)c4c5c76)-c4c(cc(O)c(O)c4O)C(=O)OC[C@H]3OC(O)[C@@H]2OC(=O)c2cc(O)c(O)c(O)c2-c2c1cc(O)c(O)c2O (mixture of isomers) [PA, punicalagin] | – | – | – | – | – | protective effect | can reduce the DNA damage level | – | promotive effects | can promote the wound healing process | significantly increased cell viability | significantly reduced the production of MGO induced ROS | protective effect | considerably more active | –
O=c1oc2c(O)c(O)cc3c(=O)oc4c(O)c(O)cc1c4c23 [EA, ellagic acid] | – | – | – | – | not cytotoxic | no protective effects | can reduce the DNA damage level | – | promotive effects | – | – | – | – | – | significantly reduced the production of MGO induced ROS

Source: patent publication US20200085895A1, “PUNICALAGIN COMPOSITIONS AND METHODS FOR THE TREATMENT OF DISORDERS ARISING FROM METHYLGLYOXAL-INDUCED DNA DAMAGE” (Verdure Sciences, priority 2018, published 2020)
